The record followed here is publication PMC10517971, “An inverse agonist of orphan receptor GPR61 acts by a G protein-competitive allosteric mechanism” (Nature Communications, 2023).

Like-named read-outs stand apart in the source and are kept apart here.

This assay has as its target T1, human GABAA receptor (α1β2γ2) (Homo sapiens, UniProt P14867+P18507+P47870).
T1 construct: expressed in transfected cells
In words: GABA Patch Clamp Assay (agonist, antagonist, PAM modes). Type of assay: cell-based. From the text: 151 GABA Patch Clamp Assay
152 Compound effects on the human GABAA recepto r (α1β2γ2), stably express ed in human embryonic
153 kidney (HEK) cells, were examined in three modes of action: agonist, antagonist and positive
154 allosteric modulation (PAM) modes. Chloride currents evoked by the activation of the GABAA
155 recepto r wer e reco rded in the whole- cell patch clamp configuration with the automated Qube384®
156 platform (Sophion Bioscience A/S, Baltorpvej, Denmark). The intracellular solution contained (in
157 mM): CsF 90, CsCl 50, MgCl2 2 EGTA 10, HEPES 10, pH adjusted to 7.2 with CsOH. The
158 extracellular solution contained (in mM): NaCl 138, KCl 5.3, CaCl2 5, MgCl2 0.49, HEPES 10,
160 osmolarity of the internal and external solutions were adjusted with sucrose to 300 mOsm and 305
162 Compounds were dissolved and initially diluted in dimethyl sulfoxide (DMSO), with a final
163 dilution in external sol ution to generate final working concent rations. The final DMSO
164 concentration in all experiments was 0.33% (v/v).
165 Cells and solutions were loaded into the Qube384 10X Qchip (10 recording wells per well, 384
166 wells per QChip). After whole-cell con figuration was achiev ed by negativ e pressure pulse, cells
167 were maintained at a holding potential of - 80 mV throughout the experiment. To avoid
168 desensitization and current rundown due to persistent activation of GABAA, a “stacked pipette”
169 approach was utilized to ensure only a brief exposure of the cells to GABA-containing solutions.
170 In this approach, the perfusion pipettes drew from two liquid sources, first from extracellular
171 solution (14 µL), and next from a GABA-containing solution (7 µL). When dispensed into the
173 extracellular solution. At the start of the experiment, a baseline GABAA cu rrent was established
174 for each well in response to activation by 40 µM GABA. Each subsequent test condition was
175 normalized ag ainst this baseline GABA cu rrent on a per w ell basis.
176 Agonist effects were measured by recording the current evoked by the test article in the absen ce
177 of GABA. Agonism (%) was calculated relative to the current produced by 40 µM GABA for
178 each well: [% Agonism = (Itest article / I 40µM GABA) * 100%].
179 Antagonist effects of test article were examined i n the presence of 40 µM GABA following a 4
180 min incubation in test article. Antagonism was calculated relative to the current produced by 40 […]
182 allosteric modulation (%) by test article was detected when current was enhanced relative to the […]
184 EC50/ IC 50 values were calculated by fitting concentration response curve data to a 4- p aram eter […]
190 determined using a four-parameter logistic fit. […]
193 response. An apparent KB value for antagonist activity was calculated using the following […]
In general terms: Patch clamp records ionic current or voltage across a cell membrane.

T1 sequence (P14867 28-456): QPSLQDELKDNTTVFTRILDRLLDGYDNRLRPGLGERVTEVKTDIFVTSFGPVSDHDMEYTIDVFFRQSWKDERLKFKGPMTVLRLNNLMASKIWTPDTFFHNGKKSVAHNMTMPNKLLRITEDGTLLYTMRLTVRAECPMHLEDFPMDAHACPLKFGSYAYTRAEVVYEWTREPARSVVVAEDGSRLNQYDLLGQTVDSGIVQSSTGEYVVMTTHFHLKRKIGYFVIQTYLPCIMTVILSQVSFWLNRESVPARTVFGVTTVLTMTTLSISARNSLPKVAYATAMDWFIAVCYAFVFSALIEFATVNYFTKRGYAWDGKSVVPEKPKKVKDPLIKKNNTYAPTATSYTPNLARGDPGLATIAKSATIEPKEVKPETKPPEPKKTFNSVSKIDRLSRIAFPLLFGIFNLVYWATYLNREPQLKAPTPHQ
T1 sequence (P47870 25-512 limits assumed): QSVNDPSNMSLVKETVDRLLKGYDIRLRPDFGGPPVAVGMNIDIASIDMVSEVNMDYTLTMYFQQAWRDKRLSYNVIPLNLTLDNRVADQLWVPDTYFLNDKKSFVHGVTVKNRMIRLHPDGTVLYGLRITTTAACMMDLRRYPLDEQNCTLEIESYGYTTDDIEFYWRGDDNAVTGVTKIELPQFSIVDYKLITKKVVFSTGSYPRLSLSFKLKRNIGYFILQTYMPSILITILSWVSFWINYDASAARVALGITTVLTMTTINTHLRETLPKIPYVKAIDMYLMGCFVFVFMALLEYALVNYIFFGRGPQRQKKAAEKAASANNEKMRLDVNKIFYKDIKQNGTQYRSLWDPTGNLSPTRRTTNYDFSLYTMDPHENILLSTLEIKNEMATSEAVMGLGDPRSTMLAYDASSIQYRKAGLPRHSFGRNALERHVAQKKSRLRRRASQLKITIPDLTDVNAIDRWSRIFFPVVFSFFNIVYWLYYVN
T1 sequence (P18507 40-475): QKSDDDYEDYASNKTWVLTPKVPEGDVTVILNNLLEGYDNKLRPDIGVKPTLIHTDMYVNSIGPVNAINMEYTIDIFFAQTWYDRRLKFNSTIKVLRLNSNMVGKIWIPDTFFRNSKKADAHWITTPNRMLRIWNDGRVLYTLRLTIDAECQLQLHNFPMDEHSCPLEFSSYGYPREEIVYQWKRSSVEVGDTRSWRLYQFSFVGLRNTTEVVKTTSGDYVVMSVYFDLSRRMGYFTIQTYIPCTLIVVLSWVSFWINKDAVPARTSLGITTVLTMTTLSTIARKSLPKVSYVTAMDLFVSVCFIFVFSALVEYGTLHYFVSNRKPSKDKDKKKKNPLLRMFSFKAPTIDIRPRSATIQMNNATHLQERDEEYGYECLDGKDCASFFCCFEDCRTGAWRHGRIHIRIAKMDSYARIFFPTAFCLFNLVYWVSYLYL

On to `CCOc1cc(C)nc(N(CCOC)S(=O)(=O)c2ccc(NCc3c(F)cncc3F)nc2OC)n1` [Compound 1], for which the concentration giving a half-maximal response (EC50) is more than 100 µM. For the setting “GABAa, 10μM”, the “%Activation@10μM” value is 0% and the inhibition at 10 µM stood at 4%. In addition, the EC50 (read-out: PAM EC50, GABAa, positive allosteric modulation mode) is more than 100 µM.

One may read the EC50 as the concentration giving half of the maximal effect. The inhibition is the share of the control response that was lost under treatment. A high value points to strong suppression.
